Source: ChEMBL document CHEMBL1201862, “PubChem BioAssay data set” (2004)
Activity calls are given as the source filed them.

Legend:
[1] = target: T1, Neuropeptides B/W receptor type 1 (Homo sapiens, UniProt P48145); test: Fluorescence-based dose response cell-based high throughput screening assay to identify antagonists of the G-protein coupled receptor 7 (GPR7). [Related pubchem assays: 1952 (Screening assay (GPR7 antagonists).), 1880 (Summary AID.)]; type: functional
T1 sequence (P48145 whole entry): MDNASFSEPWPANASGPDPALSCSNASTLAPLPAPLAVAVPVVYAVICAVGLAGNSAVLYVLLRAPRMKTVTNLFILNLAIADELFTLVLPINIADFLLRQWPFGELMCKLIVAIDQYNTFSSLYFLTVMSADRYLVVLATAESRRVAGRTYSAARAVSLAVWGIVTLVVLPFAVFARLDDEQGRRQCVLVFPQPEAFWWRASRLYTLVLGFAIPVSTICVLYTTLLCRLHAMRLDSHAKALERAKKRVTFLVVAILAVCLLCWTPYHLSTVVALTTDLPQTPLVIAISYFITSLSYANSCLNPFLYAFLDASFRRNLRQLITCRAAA

[2] = target: Melanin-concentrating hormone receptor 1 (Homo sapiens, UniProt Q99705); test: Fluorescence-based counterscreen for antagonists of the G-protein coupled receptor 7 (GPR7): cell-based high throughput dose response assay to identify antagonists of the melanin-concentrating hormone receptor 1 (MCHR1).; type: functional
[3] = Luminescence Cell-Based Dose Retest to Confirm Inhibitors of Cancer Stem Cells. [Related pubchem assays (depositor defined):AID2717, AID2721]; type: functional; details: Homo sapiens
HEK293 [4] = test: cells; type: functional, cell-based; details: Homo sapiens
INS1 = test: beta cell apoptosis inhibitors, cytokine rescue, dose response, luminescence, retest (AID 449756); type: functional, cell-based; details: Rattus norvegicus;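 note: cell death triggered by IL-1 beta plus TNF-alpha plus IFN-gamma mixture; protective hits raise ATP signal compared with cytokine alone wells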
[5] = target: Nucleotide-binding oligomerization domain-containing protein 2 (Homo sapiens, UniProt Q9HC29); test: NOD2 signaling inhibitors, cell-based, luminescence, uHTS, HEK293 (AID 1566); type: functional
HEK293 [6] = test: cells; type: functional, cell-based; details: Homo sapiens; remark: listed apart in the source
HEK293 [7] = test: cells; type: functional, cell-based; details: Homo sapiens; remark: listed apart in the source
HEK293 [8] = test: NOD2 signaling inhibitors in MDP-stimulated cells, cell-based, uHTS, luminescence (AID 2001); type: functional; details: Homo sapiens
HEK293 [9] = test: NOD1 signaling inhibitors, primary screen, cell-based, luminescence, uHTS (AID 1578); type: functional; details: Homo sapiens
[10] = CEM21 lymphoblast cell cytotoxicity, dose response, cytotoxicity control for viral fusion inhibitor project, CellTiter-Glo luminescence, cherry-picked (AID 652042); type: functional, cell-based;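 note: potency for signal decrease meaning cytotoxicity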
[11] = inhibitors of clade B AD8 Env fusion, dose response, cell-based, cherry-pick (AID 652062); type: functional;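 note: luciferase signal from cell-cell fusion driven by HIV-1 clade B AD8 Env; potency is for inhibitors of fusion seen as a drop in luminescence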
[12] = ZM109 Env clade C HIV-1 fusion inhibitors, dose response, HeLa effector, CEM target cells, luciferase, cherry-pick (AID 652058); type: functional, cell-based
[13] = target: T2, Long-chain-fatty-acid--AMP ligase FadD28 (Mycobacterium tuberculosis, UniProt P9WQ59); test: Fluorescence polarization aasay to screen for inhibitors that compete for the binding of FadD28 to a bisubstrate Measured in Biochemical System Using Plate Reader - 2147-01_Inhibitor_Dose_CherryPick_Activity.; type: functional, Mycobacterium tuberculosis H37Rv
T2 sequence (P9WQ59 whole entry): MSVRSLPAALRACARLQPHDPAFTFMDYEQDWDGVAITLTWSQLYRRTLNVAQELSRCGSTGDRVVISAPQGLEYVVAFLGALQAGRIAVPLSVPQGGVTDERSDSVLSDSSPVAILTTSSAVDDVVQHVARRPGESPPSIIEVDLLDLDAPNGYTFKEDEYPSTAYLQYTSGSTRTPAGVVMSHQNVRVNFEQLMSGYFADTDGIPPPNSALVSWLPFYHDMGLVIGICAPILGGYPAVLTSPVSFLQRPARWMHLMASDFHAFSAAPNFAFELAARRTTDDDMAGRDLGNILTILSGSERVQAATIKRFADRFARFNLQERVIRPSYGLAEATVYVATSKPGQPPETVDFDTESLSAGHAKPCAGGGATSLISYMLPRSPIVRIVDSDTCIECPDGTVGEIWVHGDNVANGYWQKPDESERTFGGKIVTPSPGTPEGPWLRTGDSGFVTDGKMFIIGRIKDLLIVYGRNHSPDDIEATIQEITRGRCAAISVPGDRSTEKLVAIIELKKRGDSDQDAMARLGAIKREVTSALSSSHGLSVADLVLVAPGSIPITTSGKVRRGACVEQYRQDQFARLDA

[14] = HepG2 cell cytotoxicity, dose response, cytotoxicity control for Shn3 inhibitor project, CellTiter-Glo, cherry-picked (AID 624134); type: functional, cell-based
Protein Wnt-3a = Protein Wnt-3a (Mus musculus, UniProt P27467); test: Wnt3a-driven reporter signaling inhibition, dose response, selectivity assay for Gli-SUFU antagonist project, Wnt-LIGHT cells, luminescence (AID 651570); type: functional; details: read-out: IC50_Mean;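 note: Wnt-LIGHT reporter cells stimulated with conditioned medium from Wnt3a-producing cells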
[15] = control 3'UTR Renilla luciferase suppression, dose response, counter-screen for Shn3 inhibitor project, cell-based, Clone20-Shn3RL, cherry-picked (AID 624133); type: functional
[16] = inhibitors of firefly luciferase expression or activity, dose response, H4 neuroglioma cells, luminescence (AID 1990); type: functional, cell-based
[17] = Shn3 3'UTR reporter inhibitors, dose response, cell-based, Clone20 osteoblasts, firefly luciferase, cherry-picked (AID 624132); type: functional;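 note: firefly luciferase luminescence from reporter carrying the Shn3 3'UTR in osteoblasts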
[18] = target: T3, Short transient receptor potential channel 4 (Mus musculus, UniProt Q9QUQ5); test: mouse TRPC4 channel activators, dose response, cell-based, HEK293 TRPC4/mu-opioid, Fluo-4 calcium (AID 434937); type: functional
T3 sequence (Q9QUQ5 whole entry): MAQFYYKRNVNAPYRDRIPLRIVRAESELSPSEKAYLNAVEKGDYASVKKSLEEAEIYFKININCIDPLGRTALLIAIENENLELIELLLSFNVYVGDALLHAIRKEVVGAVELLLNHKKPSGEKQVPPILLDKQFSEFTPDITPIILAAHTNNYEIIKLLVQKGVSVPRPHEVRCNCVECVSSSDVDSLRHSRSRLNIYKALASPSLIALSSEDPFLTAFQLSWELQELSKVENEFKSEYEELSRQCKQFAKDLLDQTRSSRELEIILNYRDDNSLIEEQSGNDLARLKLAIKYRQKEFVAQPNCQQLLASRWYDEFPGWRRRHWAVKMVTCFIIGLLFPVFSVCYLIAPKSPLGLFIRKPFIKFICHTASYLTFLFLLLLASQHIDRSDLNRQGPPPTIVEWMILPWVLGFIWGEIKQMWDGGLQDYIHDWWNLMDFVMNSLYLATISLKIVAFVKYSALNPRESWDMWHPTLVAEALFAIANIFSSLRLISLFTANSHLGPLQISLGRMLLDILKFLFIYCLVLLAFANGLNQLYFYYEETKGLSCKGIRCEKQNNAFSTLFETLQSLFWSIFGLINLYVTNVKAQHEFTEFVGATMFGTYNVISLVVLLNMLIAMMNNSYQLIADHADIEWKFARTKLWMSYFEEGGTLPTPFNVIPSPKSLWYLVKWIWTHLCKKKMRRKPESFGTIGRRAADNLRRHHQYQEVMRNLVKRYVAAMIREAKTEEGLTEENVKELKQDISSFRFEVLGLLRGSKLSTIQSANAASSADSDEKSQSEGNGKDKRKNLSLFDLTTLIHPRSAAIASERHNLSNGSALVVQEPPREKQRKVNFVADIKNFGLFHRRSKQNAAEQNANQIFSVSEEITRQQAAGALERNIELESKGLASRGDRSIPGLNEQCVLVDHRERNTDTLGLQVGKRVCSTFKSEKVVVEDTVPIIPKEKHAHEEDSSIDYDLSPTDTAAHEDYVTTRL

[19] = inhibitors of SNCA 5'UTR-driven reporter translation, confirmation, H4 neuroglioma cells, luminescence (AID 1988); type: functional, cell-based
[20] = Luminescence Cell-Based Dose Response HTS to Identify Inhibitors of 5'UTR Stem-Loop Driven Prion Protein mRNA Translation in H4 Neuroglioblastoma Cells. [Related pubchem assays: 1827 (Project Summary), 1813 (Primary HTS)]; type: functional
[21] = target: T3, Short transient receptor potential channel 4; test: mouse TRPC4 channel inhibitors, dose response, cell-based, HEK293 TRPC4/mu-opioid, Fluo-4 calcium (AID 434942); type: functional;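 note: potency of inhibitors blocking the TRPC4 calcium response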
Genome polyprotein = Genome polyprotein (dengue virus type 2, UniProt P29990); test: Dengue-2 NS5 methyltransferase inhibitors, primary screen, biochemical, confirmation dose response (AID 588689); type: functional
[22] = A Cell Based Secondary Assay To Explore Cytotoxicity of Compounds that Sensitize Mycobacterium Tuberculosis to Beta-Lactam Antibiotics.; type: functional
[23] = target: Glucose-6-phosphate 1-dehydrogenase (Homo sapiens, UniProt P11413); test: human G6PD enzyme inhibitors, dose response, selectivity assay for P. falciparum G6PD inhibitor project, biochemical, fluorescence (AID 504792); type: functional
[24] = off-target signal loss in HeLa-CEM21 co-culture – HeLa F-luc CTL cells, cherry-picked, counter-screen for HIV-1 Env fusion inhibitor project, dose response (AID 652040); type: functional, cell-based;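 note: potency for signal decrease marking cytotoxic or nonspecific inhibition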
[25] = inhibitors of HIV Env-driven cell fusion, dose response, cherry-pick (AID 652057); type: functional, cell-based

Melanin-concentrating hormone receptor 1, sequence (Q99705 whole entry): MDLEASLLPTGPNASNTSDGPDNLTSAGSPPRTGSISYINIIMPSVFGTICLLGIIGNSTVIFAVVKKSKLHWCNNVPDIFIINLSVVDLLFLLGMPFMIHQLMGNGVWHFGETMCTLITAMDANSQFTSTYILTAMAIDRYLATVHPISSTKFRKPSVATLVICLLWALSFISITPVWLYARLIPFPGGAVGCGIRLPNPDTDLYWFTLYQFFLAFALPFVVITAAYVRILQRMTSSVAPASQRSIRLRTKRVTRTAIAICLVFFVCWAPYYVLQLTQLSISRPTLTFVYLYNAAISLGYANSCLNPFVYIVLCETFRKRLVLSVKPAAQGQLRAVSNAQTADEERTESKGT
Nucleotide-binding oligomerization domain-containing protein 2, sequence (Q9HC29 whole entry, the tested form may be a part): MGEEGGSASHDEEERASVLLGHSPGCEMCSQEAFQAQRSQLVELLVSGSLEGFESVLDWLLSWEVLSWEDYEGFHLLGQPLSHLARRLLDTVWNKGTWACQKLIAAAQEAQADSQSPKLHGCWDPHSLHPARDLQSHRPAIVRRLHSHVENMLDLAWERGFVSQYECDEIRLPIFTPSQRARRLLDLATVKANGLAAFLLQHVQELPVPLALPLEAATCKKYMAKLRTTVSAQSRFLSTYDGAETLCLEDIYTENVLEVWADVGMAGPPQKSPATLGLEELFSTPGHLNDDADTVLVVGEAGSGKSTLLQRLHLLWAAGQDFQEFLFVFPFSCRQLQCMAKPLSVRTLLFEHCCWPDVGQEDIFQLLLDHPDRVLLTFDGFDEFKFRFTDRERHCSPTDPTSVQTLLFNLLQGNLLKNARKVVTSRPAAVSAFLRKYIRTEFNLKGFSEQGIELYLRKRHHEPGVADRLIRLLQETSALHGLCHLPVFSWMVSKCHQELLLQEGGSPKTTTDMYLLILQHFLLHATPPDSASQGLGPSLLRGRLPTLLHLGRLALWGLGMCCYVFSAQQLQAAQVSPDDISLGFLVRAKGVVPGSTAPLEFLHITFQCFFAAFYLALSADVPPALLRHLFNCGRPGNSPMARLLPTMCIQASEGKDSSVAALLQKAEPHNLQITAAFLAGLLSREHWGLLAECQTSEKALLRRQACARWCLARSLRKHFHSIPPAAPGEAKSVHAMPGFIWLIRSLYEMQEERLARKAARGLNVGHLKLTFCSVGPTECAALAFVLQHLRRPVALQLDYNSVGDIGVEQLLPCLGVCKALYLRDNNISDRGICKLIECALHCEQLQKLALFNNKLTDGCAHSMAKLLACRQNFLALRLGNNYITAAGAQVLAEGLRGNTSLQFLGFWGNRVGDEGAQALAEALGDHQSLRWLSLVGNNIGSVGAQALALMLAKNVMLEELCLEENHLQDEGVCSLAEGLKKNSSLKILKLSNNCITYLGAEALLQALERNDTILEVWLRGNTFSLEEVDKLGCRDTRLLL
Genome polyprotein, sequence (P29990 2492-3391 limits assumed): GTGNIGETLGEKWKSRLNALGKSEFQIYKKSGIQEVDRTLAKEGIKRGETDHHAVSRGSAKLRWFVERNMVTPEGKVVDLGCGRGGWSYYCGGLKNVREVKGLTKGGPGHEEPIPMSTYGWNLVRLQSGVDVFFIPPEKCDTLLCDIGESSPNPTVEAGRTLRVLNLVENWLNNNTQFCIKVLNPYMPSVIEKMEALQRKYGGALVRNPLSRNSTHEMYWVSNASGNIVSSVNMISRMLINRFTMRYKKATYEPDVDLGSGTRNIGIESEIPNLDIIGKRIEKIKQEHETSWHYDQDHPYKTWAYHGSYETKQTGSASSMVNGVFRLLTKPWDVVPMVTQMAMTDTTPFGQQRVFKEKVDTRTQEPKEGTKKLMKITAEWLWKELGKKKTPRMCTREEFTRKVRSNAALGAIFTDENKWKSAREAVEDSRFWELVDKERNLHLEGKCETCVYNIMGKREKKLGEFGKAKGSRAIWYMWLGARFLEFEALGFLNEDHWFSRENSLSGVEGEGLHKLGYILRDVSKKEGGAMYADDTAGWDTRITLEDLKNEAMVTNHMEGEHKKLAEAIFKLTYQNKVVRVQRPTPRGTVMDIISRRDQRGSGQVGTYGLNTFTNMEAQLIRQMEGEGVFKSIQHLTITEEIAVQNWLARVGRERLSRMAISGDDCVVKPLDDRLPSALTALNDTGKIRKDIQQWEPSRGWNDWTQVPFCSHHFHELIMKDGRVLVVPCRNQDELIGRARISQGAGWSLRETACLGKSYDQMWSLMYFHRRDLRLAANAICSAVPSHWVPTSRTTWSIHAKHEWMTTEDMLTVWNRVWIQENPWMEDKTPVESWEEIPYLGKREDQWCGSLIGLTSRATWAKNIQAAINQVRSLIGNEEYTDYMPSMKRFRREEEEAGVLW
Protein Wnt-3a, sequence (P27467 whole entry): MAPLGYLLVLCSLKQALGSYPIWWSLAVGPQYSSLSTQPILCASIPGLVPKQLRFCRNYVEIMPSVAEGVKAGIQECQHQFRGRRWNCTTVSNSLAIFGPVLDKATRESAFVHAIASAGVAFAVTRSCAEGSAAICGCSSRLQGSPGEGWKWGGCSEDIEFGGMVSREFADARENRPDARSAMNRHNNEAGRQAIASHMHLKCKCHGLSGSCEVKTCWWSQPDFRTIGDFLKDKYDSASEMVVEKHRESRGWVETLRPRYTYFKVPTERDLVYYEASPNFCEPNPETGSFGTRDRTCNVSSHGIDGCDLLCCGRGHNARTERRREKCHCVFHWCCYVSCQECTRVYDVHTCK
Glucose-6-phosphate 1-dehydrogenase, sequence (P11413 whole entry, the tested form may be a part): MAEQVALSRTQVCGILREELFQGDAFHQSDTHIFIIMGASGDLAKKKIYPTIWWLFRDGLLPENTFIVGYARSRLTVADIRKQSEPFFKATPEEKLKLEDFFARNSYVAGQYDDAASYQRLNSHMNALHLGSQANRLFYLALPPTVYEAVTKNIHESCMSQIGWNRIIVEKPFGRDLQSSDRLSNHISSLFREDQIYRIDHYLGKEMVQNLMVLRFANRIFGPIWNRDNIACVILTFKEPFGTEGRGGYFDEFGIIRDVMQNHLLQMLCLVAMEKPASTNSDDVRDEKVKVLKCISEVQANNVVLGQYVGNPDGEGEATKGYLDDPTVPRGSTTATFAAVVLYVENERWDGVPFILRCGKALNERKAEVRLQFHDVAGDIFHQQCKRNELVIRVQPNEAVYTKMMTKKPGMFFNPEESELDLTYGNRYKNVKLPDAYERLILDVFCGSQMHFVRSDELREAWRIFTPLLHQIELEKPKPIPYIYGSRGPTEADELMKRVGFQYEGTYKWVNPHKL

Structure (SMILES): CCN(CC(=O)Nc1cccc(C#N)c1)CC(=O)Nc1cccc(OC)c1
- IC50 [1]: > 43.8 µM (not active)
- IC50 [2]: 27.9 µM (not active)

Structure (SMILES): CCCCC(c1nnnn1C1CCCC1)N1CCN(C2CCCCC2)CC1 (stereo not drawn)
- IC50 [1]: > 43.8 µM (not active)
- IC50 [2]: > 43.8 µM (not active)

Structure (SMILES): CC(C)(C)C1CCC2(CC1)C(C#N)=C(SCC(=O)NC1CCCCC1)NC(=O)C2C#N (stereo not drawn)
- AC50 [3]: 6.34 µM (active)
- IC50 (HEK293 [4]): > 20 µM (inactive)
- AC50 (INS1): 8.73 µM (active)
- EC50 [5]: 17.6 µM (active)
- IC50 (HEK293 [6]): 13.6 µM (active)
- IC50 (HEK293 [7]): 9.32 µM (active)
- IC50 (HEK293 [8]): 9.18 µM (active)
- EC50 (HEK293 [9]): 6.58 µM (active)

Structure (SMILES): Cc1ccc(S(=O)(=O)N(C)C[C@@H]2Oc3cc(C#CC4CCCC4)ccc3S(=O)(=O)N([C@H](C)CO)C[C@H]2C)cc1
- AC50 [10]: 61.4 µM (active)
- AC50 [11]: 35.2 µM (active)
- AC50 [12]: 2.34 µM (active)

Structure (SMILES): Cc1cccc(NC(=O)Cn2c(=O)oc3cc(S(=O)(=O)N4CCCC4)ccc32)n1
- AC50 [13]: 34.8 µM (active)

Structure (SMILES): COc1ccccc1NS(=O)(=O)c1cccc(C(=O)NC2CCN(Cc3ccccc3)CC2)c1
- AC50 [14]: 0.52 µM (active)
- IC50 (Protein Wnt-3a): 4.3 µM (active)
- AC50 [15]: 1.8 µM (active)
- EC50 [16]: > 120 µM (not active)
- AC50 [17]: 1.95 µM (active)
- EC50 [18]: 0.944 µM (active)
- EC50 [19]: > 120 µM (not active)
- EC50 [20]: > 120 µM (not active)
- EC50 [21]: 0.376 µM (active)

Structure (SMILES): CCCCn1c(N)c(N(CC(C)C)C(=O)c2ccc(COc3ccccc3)o2)c(=O)[nH]c1=O
- IC50 [1]: > 43.8 µM (not active)
- IC50 [2]: > 43.8 µM (not active)

Structure (SMILES): O=C1NN(c2cccc(Br)c2)C(=O)/C1=C\c1ccccc1
- AC50 [3]: 3.04 µM (active)
- IC50 (Genome polyprotein): 35.1 µM (active)
- AC50 [13]: > 100 µM (inactive)

Structure (SMILES): CCC1(CC)Cc2ccccc2C(N)=C1C#N
- CC50 [22]: > 40 µM (active)
- IC50 [23]: > 80 µM (inactive)

Structure (SMILES): Cc1nc(Nc2nc(O)cc(CSc3nc4ccccc4[nH]3)n2)nc2ccccc12
- AC50 [24]: 8.15 µM (active)
- AC50 [3]: 3.58 µM (active)
- AC50 [10]: 11.2 µM (active)
- AC50 [11]: 10.3 µM (active)
- AC50 [25]: 6.8 µM (active)
- AC50 [12]: 7.51 µM (active)
